Here are results for 51 compounds from patent US20240043403A1, “HETEROARYL CARBOXAMIDE COMPOUND” (Astellas Pharma Inc., priority 2020, published 2024).

The target of this assay is human recombinant DGK ξ (Homo sapiens (Human), UniProt Q13574). The assay is described as follows: Evaluation of DGK ξ inhibitory effect (ADP-Glo Kinase Assay). It counts as biochemical. The note with it: ADP-Glo luminescence. As to the method:
Test Example 1. Evaluation of DGK ξ Inhibitory Effect
The inhibitory effect of a test compound on human recombinant DGK ξ (Cama Biosciences, Inc., 12-410-20N) was examined by the following method in which detection is performed with ADP-Glo™ Kinase Assay (Promega Corporation).
To a 384-well plate (Greiner Bio-One Co., Ltd.), 3 μL of a DGK ξ enzyme dissolved in an assay buffer (40 mM Tris-HCl pH 7.5, 10 mM MgCl2, 1 mM dithiothreitol (DTT) and 0.1 mg/mL bovine serum albumin (BSA)) (90 ng/mL) was added, and 3 μL of the test compound diluted with the same assay buffer was added so that an intended final concentration was obtained. The mixture was left standing at room temperature for 15 minutes, 3 μL of a substrate (150 μM 1-oleoyl-2-acetyl-sn-glycerol (Sigma-Aldrich Co. LLC), 480 μM phosphatidylserine (Avanti, Inc.) and 150 μM UltraPure-ATP (attached to ADP-Glo)) was then added, and the mixture was left standing at room temperature for 30 minutes to react. Thereafter, 3 μL of an ADP-Glo Reagent was added, and the mixture was left standing at room temperature for 40 minutes to stop the enzyme reaction. Further, 6 μL of a Kinase-Detection Reagent was added, the mixture was left standing at room temperature for 30 minutes, and the luminescence was then measured using ARVO X3 (PerkinElmer, Inc.). The half maximal inhibitory concentration (IC50) was calculated by Sigmoid-Emax model non-linear regression analysis, where the signal value in solvent treatment was set to 0% inhibition and the signal value without addition of the DGK ξ enzyme was set to 100% inhibition. […] In the table. Ex represents the number of each Example described below.

Chain of human recombinant DGK ξ (Q13574 whole entry): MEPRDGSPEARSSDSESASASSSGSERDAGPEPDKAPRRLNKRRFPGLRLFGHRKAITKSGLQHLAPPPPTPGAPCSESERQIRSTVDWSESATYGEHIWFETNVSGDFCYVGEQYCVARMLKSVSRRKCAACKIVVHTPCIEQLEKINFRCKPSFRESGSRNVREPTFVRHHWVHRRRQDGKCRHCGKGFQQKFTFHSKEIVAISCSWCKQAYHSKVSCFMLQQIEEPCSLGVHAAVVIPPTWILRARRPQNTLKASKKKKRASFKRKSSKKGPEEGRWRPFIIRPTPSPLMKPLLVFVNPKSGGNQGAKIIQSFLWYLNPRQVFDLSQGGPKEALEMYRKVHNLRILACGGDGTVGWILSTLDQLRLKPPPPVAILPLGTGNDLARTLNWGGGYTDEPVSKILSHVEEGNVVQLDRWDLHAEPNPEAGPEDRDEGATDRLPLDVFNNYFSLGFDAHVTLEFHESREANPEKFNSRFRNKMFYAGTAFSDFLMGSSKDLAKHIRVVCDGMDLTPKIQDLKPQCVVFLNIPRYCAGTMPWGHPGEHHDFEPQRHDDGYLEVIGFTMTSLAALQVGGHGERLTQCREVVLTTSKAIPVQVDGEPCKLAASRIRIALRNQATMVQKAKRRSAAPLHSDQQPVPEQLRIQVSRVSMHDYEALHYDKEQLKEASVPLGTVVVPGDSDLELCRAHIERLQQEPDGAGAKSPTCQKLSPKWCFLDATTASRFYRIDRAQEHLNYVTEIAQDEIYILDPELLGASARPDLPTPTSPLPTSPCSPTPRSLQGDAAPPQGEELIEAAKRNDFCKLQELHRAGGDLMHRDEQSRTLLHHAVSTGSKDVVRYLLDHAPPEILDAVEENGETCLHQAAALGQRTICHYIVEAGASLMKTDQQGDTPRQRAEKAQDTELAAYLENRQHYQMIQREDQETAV

For the compound `NCCOc1cccc(-c2c(NC(=O)c3coc(-c4ccnnc4)n3)ccc(OC3CC3)c2C(F)(F)F)c1` [Example 65], the IC50 (commonly the concentration needed to halve the response being measured) came out at 22 nM.

As for `CNCCOc1cccc(-c2c(NC(=O)c3coc(-c4ccnnc4)n3)ccc(OC3CC3)c2C(F)(F)F)c1` [Example 66], the IC50 amounted to 180 nM.

For the compound `NCCOc1cc(-c2c(NC(=O)c3coc(-c4ccnnc4)n3)ccc(OC3CCC3)c2C(F)(F)F)ccn1` [Example 67], the half-maximal inhibitory concentration (IC50) is 35 nM.

Regarding `NCCOc1cc(-c2c(NC(=O)c3coc(-c4ccnnc4)n3)ccc(OC3CC3)c2C(F)(F)F)ccn1` [Example 68], the concentration for half-maximal inhibition (IC50) is 24 nM.

Consider `CNCCOc1cc(-c2c(NC(=O)c3coc(-c4ccnnc4)n3)ccc(OC3CCC3)c2C(F)(F)F)ccn1` [Example 69], for which the IC50 came to 60 nM.

As for `CNCCOc1cc(-c2c(NC(=O)c3coc(-c4ccnnc4)n3)ccc(OC3CC3)c2C(F)(F)F)ccn1` [Example 70], the 50% inhibitory concentration (IC50) amounted to 55 nM.

For `O=C(Nc1ccc(OC2CCC2)c(C(F)(F)F)c1-c1cnn(C2CCNCC2)c1)c1coc(-c2ccnnc2)n1` [Example 71], the IC50 was found to be 21 nM.

In the case of `O=C(Nc1ccc(OC2CC2)c(C(F)(F)F)c1-c1cnn(C2CCNCC2)c1)c1ccn(-c2ccnnc2)n1` [Example 72], the IC50 is 62 nM.

Take `NCCCn1cc(-c2c(NC(=O)c3coc(-c4ccnnc4)n3)ccc(OC3CCC3)c2C(F)(F)F)cn1` [Example 73]: the IC50 turned out to be 43 nM.

As to `NCCCn1cc(-c2c(NC(=O)c3ccn(-c4ccnnc4)n3)ccc(OC3CCC3)c2C(F)(F)F)cn1` [Example 74], the IC50 came out at 16 nM.

For `N[C@@H]1CCN2CCN(c3c(NC(=O)c4coc(-c5ccnnc5)n4)ccc(OC4CCC4)c3C(F)(F)F)C[C@@H]12` [Example 75], the IC50 was 69 nM.

For `CN[C@@H]1CCN2CCN(c3c(NC(=O)c4coc(-c5ccnnc5)n4)ccc(Oc4ccccc4)c3C(F)(F)F)C[C@@H]12` [Example 76], the IC50 was found to be 7.6 nM.

On to `N[C@@H]1CCN2CCN(c3c(NC(=O)c4ccn(-c5ccnnc5)n4)ccc(Oc4ccccc4F)c3C(F)(F)F)C[C@@H]12` [Example 77], for which the 50% inhibitory concentration (IC50) worked out at 5.6 nM.

`CN[C@@H]1CCN2CCN(c3c(NC(=O)c4ccn(-c5ccnnc5)n4)ccc(Oc4ccccc4F)c3C(F)(F)F)C[C@@H]12` [Example 78]: the half-inhibitory concentration (IC50) came out at 1.3 nM.

Regarding `NCCOc1cc(-c2c(NC(=O)c3ccn(-c4ccnnc4)n3)ccc(OC3CCC3)c2C(F)(F)F)ccn1` [Example 79], the IC50 was found to be 7.8 nM.

As for `N[C@@H]1CCN2CCN(c3c(NC(=O)c4coc(-c5ccnnc5)n4)ccc(OC4CC4)c3C(F)(F)F)C[C@@H]12` [Example 81], the IC50 came out at 110 nM.

Turning to `N[C@@H]1CCN2CCN(c3c(NC(=O)c4ccn(-c5ccnnc5)n4)ccc(OC4CC4)c3C(F)(F)F)C[C@@H]12` [Example 82], the 50% inhibitory concentration (IC50) turned out to be 31 nM.

As for `CN[C@@H]1CCN2CCN(c3c(NC(=O)c4coc(-c5ccnnc5)n4)ccc(Oc4ccccc4F)c3C(F)(F)F)C[C@@H]12` [Example 83], the half-maximal inhibitory concentration (IC50) came out at 3.5 nM.

Consider `N[C@H]1CCN2CCN(c3c(NC(=O)c4ccn(-c5ccnnc5)n4)ccc(Oc4ccccc4F)c3C(F)(F)F)C[C@H]12` [Example 84], for which the IC50 amounted to 2.1 nM.

For the compound `CN[C@H]1CCN2CCN(c3c(NC(=O)c4ccn(-c5ccnnc5)n4)ccc(Oc4ccccc4F)c3C(F)(F)F)C[C@H]12` [Example 85], the half-maximal inhibitory concentration (IC50) amounted to 5.2 nM.

As for `CNC[C@H]1CN(c2c(NC(=O)c3ccn(-c4ccnnc4)n3)ccc(Oc3ccccc3Cl)c2C(F)(F)F)CCN1C` [Example 87], the IC50 stood at 4.1 nM.

Take `CNC[C@H]1CN(c2c(NC(=O)c3ccn(-c4ccnnc4)n3)ccc(OC3CC3)c2C(F)(F)F)CCN1C` [Example 88]: the IC50 was found to be 110 nM.

With `CN1CCN(c2c(NC(=O)c3ccn(-c4ccnnc4)n3)ccc(Oc3ccccc3F)c2C(F)(F)F)C[C@@H]1CNC1CC1` [Example 89], the 50% inhibitory concentration (IC50) amounted to 27 nM.

As to `Cc1cc(C(=O)Nc2ccc(Oc3ccccc3Cl)c(C(F)(F)F)c2N2CCC[C@@H](CN)C2)nn1-c1ccnnc1` [Example 91], the concentration for half-maximal inhibition (IC50) was 25 nM.

As for `CNC[C@H]1CN(c2c(NC(=O)c3cc(C)n(-c4ccnnc4)n3)ccc(Oc3ccccc3F)c2C(F)(F)F)CCN1C` [Example 92], the IC50 was 92 nM.

For `CNC[C@H]1CN(c2c(NC(=O)c3coc(-c4ccnnc4)n3)ccc(Oc3ccccc3Cl)c2Cl)CCN1C` [Example 93], the IC50 came to 2.8 nM.

For `CNC[C@H]1CN(c2c(NC(=O)c3ccn(-c4ccnnc4)n3)ccc(Oc3ccccc3Cl)c2Cl)CCN1C` [Example 94], the IC50 stood at 1.4 nM.

For the compound `CNC[C@@H]1CN(c2c(NC(=O)c3ccn(-c4ccnnc4)n3)ccc(Oc3ccccc3Cl)c2C(F)(F)F)CCN1C` [Example 95], the half-inhibitory concentration (IC50) amounted to 3.8 nM.

On to `CNC[C@H]1CN(c2c(NC(=O)c3ccn(-c4ccnnc4)n3)ccc(Oc3ccc(F)cc3F)c2C(F)(F)F)CCN1C` [Example 96], for which the IC50 turned out to be 30 nM.

In the case of `CNC[C@H]1CN(c2c(NC(=O)c3cnn(-c4ccnnc4)n3)ccc(Oc3ccccc3Cl)c2C(F)(F)F)CCN1C` [Example 97], the 50% inhibitory concentration (IC50) stood at 12 nM.

With `CNC[C@H]1CN(c2c(NC(=O)c3coc(-c4ccnnc4)n3)ccc(Oc3ccccc3F)c2Cl)CCN1C` [Example 98], the 50% inhibitory concentration (IC50) was found to be 7.5 nM.

On to `CNC[C@H]1CN(c2c(NC(=O)c3ccn(-c4ccnnc4)n3)ccc(OC3CCC3)c2C(F)(F)F)CCN1C` [Example 99], for which the concentration for half-maximal inhibition (IC50) is 33 nM.

Regarding `CNC[C@H]1CN(c2c(NC(=O)c3coc(-c4ccnnc4)n3)ccc(OC3CCC3)c2C(F)(F)F)CCN1C` [Example 100], the IC50 was determined as 60 nM.

Take `CNC[C@H]1CN(c2c(NC(=O)c3ccn(-c4ccnnc4)n3)ccc(Oc3ccc(F)cc3)c2C(F)(F)F)CCN1C` [Example 101]: the IC50 came to 69 nM.

As for `CNC[C@H]1CN(c2c(NC(=O)c3coc(-c4ccnnc4)n3)ccc(Oc3ccc(F)cc3)c2C(F)(F)F)CCN1C` [Example 102], the half-maximal inhibitory concentration (IC50) amounted to 210 nM.

Consider `CNC[C@H]1CN(c2c(NC(=O)c3coc(-c4ccnnc4)n3)ccc(Oc3ccccc3F)c2C2CC2)CCN1C` [Example 103], for which the IC50 stood at 46 nM.

Consider `CNC[C@H]1CN(c2c(NC(=O)c3ccn(-c4ccnnc4)n3)ccc(Oc3ccccc3F)c2C2CC2)CCN1C` [Example 104], for which the half-maximal inhibitory concentration (IC50) is 37 nM.

For `CNC[C@H]1CN(c2c(NC(=O)c3coc(-c4ccnnc4)n3)ccc(Oc3ccccc3)c2C(F)(F)F)CCN1C` [Example 105], the IC50 was determined as 46 nM.

`CNC[C@H]1CN(c2c(NC(=O)c3coc(-c4ccnnc4)n3)cc(F)c(Oc3ccccc3)c2F)CCN1C` [Example 106]: the IC50 turned out to be 7.5 nM.

With `CNC[C@H]1CN(c2c(NC(=O)c3ccn(CC(F)F)n3)cc(F)c(Oc3ccccc3)c2F)CCN1C` [Example 107], the IC50 is 220 nM.

On to `CNC[C@H]1CN(c2c(NC(=O)c3ccn(-c4ccnnc4)n3)cc(F)c(Oc3ccccc3)c2F)CCN1C` [Example 108], for which the half-maximal inhibitory concentration (IC50) stood at 8.9 nM.

In the case of `NC[C@@H]1CCCN(c2c(NC(=O)c3ccn(CC(F)(F)F)n3)ccc(Oc3ccccc3)c2C(F)(F)F)C1` [Example 109, N-{2-[(3S)-3-(aminomethyl)piperidin-1-yl]-4-phenoxy-3-(trifluoromethyl)phenyl}-1-(2,2,2-trifluoroethyl)-1H-pyrazole-3-carboxamide], the concentration for half-maximal inhibition (IC50) turned out to be 110 nM.

Turning to `NC[C@@H]1CCCN(c2c(NC(=O)c3cccn(CC(F)(F)F)c3=O)ccc(Oc3ccccc3)c2C(F)(F)F)C1` [Example 110], the IC50 came out at 190 nM.

Take `Cc1cc(C(F)(F)F)n2nc(C(=O)Nc3ccc(Oc4ccccc4)c(C(F)(F)F)c3N3CCC[C@@H](CN)C3)cc2n1` [Example 111]: the concentration for half-maximal inhibition (IC50) amounted to 280 nM.

Regarding `CN1CCN(c2c(NC(=O)c3ccn(CC(F)F)n3)ccc(Oc3ccccc3F)c2Cl)C[C@@H]1CN` [Example 112, N-{2-[(3S)-3-(aminomethyl)-4-methylpiperazin-1-yl]-3-chloro-4-(2-fluorophenoxy)phenyl}-1-(2,2-difluoroethyl)-1H-pyrazole-3-carboxamide], the half-maximal inhibitory concentration (IC50) turned out to be 52 nM.

`CN(C)CCOc1cc(-c2c(NC(=O)c3coc(-c4ccnnc4)n3)ccc(OC3CCC3)c2C(F)(F)F)ccn1` [Example 113, N-[4-(cyclobutyloxy)-2-{2-[2-(dimethylamino)ethoxy]pyridin-4-yl}-3-(trifluoromethyl)phenyl]-2-(pyridazin-4-yl)-1,3-oxazole-4-carboxamide]: the IC50 was determined as 21 nM.

With `CN(C)CCOc1cccc(-c2c(NC(=O)c3coc(-c4ccnnc4)n3)ccc(OC3CC3)c2C(F)(F)F)c1` [Example 114], the half-inhibitory concentration (IC50) turned out to be 37 nM.

As for `CN(C)[C@@H]1CCN2CCN(c3c(NC(=O)c4coc(-c5ccnnc5)n4)ccc(Oc4ccccc4)c3C(F)(F)F)C[C@@H]12` [Example 115], the IC50 stood at 7.9 nM.

With `CN(C)C[C@H]1CN(c2c(NC(=O)c3coc(-c4ccnnc4)n3)ccc(Oc3ccccc3)c2C(F)(F)F)CCN1C` [Example 116], the IC50 turned out to be 44 nM.

As for `CN(C)[C@@H]1CCN2CCN(c3c(NC(=O)c4ccn(-c5ccnnc5)n4)ccc(Oc4ccccc4F)c3C(F)(F)F)C[C@@H]12` [Example 118], the 50% inhibitory concentration (IC50) was 1.4 nM.

For the compound `CN(C)[C@@H]1CCN2CCN(c3c(NC(=O)c4coc(-c5ccnnc5)n4)ccc(OC4CC4)c3C(F)(F)F)C[C@@H]12` [Example 119], the IC50 came out at 41 nM.
